Ki data for eleven molecules are collected here from BindingDB's records for PubMed 20126400 (University of Oklahoma, 2010).

Holding throughout (assay): Ray2010 Assay 74
Assay [1] addresses Sigma non-opioid intracellular receptor 1 (Homo sapiens, UniProt Q99720). The source says:
(§1) Table S2 shows raw Ki data for the current study combined with data collected from the literature for the ten additional compounds.

For assay [2], the target named is Sigma intracellular receptor 2 (Homo sapiens, UniProt Q5BJF2).
Sequence of Sigma intracellular receptor 2 (Q5BJF2 whole entry): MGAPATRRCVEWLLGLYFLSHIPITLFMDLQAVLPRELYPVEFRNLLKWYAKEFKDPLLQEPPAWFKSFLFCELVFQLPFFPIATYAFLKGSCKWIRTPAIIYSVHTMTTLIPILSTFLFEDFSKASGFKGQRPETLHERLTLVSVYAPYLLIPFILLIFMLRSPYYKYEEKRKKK
Text: as §1

In another assay the target is Nischarin (Homo sapiens, UniProt Q9Y2I1).
Sequence of Nischarin (Q9Y2I1 whole entry): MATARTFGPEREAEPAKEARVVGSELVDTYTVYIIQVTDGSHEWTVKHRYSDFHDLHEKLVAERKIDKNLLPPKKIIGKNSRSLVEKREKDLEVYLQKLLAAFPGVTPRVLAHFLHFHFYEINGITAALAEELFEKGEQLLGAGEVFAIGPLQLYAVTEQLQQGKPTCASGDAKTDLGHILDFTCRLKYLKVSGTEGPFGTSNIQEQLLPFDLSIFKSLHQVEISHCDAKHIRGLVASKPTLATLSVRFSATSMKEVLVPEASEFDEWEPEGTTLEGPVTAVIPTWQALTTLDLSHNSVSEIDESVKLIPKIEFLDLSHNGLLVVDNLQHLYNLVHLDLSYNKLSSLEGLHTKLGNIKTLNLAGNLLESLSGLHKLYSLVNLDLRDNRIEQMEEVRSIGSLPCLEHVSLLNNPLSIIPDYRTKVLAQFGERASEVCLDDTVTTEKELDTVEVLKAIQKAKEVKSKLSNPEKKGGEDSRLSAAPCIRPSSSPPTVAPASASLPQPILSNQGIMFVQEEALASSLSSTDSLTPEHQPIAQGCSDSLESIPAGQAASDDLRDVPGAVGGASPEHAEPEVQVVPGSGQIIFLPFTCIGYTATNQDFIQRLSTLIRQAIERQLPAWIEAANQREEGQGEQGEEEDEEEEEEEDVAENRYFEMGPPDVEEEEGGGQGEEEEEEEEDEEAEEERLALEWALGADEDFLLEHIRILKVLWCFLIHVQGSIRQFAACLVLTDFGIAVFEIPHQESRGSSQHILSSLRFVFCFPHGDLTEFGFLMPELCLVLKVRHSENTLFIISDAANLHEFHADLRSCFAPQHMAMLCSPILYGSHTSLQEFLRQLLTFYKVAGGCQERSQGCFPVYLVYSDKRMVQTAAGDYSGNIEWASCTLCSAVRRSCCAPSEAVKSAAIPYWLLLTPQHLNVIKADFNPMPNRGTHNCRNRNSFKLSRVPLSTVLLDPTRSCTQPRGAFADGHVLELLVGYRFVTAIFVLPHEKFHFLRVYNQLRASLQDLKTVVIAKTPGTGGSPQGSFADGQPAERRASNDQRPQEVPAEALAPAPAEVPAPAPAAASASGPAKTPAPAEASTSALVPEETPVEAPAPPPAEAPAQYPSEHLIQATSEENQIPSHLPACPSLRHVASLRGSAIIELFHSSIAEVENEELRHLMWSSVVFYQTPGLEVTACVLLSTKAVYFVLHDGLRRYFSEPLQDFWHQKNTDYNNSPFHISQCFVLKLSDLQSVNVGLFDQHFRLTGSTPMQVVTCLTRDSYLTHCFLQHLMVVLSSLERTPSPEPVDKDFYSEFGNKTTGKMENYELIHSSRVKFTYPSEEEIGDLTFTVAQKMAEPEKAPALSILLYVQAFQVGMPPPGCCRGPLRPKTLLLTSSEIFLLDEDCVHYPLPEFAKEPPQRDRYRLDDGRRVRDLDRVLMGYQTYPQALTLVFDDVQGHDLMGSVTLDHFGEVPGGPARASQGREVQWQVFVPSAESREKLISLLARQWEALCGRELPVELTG
Text: as §1

Assay [3] has as its target T1, Muscarinic acetylcholine receptor M4 (Homo sapiens, UniProt P08173).
T1 sequence (P08173 whole entry): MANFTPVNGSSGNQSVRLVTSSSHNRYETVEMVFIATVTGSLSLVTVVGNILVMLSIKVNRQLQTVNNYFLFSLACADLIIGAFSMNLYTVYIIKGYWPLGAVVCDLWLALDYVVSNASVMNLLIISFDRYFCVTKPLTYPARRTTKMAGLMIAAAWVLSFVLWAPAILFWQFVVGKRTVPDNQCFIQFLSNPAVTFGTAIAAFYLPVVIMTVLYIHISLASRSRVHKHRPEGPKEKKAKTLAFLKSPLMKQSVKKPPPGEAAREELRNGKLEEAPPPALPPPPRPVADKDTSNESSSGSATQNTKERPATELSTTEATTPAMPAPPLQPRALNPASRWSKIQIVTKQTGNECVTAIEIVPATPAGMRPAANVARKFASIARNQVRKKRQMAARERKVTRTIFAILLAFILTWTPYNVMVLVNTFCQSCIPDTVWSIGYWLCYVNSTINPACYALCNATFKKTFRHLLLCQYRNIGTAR
Text: as §1

The target in assay [4] is T2, Alpha-2C adrenergic receptor (Homo sapiens, UniProt P18825).
T2 sequence (P18825 whole entry): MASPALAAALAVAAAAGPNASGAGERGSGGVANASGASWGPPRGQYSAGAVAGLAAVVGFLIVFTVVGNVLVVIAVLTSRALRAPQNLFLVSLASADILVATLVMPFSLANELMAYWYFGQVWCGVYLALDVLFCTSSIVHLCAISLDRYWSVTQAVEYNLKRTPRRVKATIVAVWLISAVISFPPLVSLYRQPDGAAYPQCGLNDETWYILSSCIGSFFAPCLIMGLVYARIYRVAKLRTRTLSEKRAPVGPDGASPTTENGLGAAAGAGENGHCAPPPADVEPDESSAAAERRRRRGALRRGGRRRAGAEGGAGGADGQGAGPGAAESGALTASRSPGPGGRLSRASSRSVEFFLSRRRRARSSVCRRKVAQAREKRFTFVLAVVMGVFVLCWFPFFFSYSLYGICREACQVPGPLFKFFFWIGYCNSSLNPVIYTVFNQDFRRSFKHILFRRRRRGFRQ
Text: as §1

In another assay the target is T3, Vasopressin V1b receptor (Homo sapiens, UniProt P47901).
T3 sequence (P47901 whole entry): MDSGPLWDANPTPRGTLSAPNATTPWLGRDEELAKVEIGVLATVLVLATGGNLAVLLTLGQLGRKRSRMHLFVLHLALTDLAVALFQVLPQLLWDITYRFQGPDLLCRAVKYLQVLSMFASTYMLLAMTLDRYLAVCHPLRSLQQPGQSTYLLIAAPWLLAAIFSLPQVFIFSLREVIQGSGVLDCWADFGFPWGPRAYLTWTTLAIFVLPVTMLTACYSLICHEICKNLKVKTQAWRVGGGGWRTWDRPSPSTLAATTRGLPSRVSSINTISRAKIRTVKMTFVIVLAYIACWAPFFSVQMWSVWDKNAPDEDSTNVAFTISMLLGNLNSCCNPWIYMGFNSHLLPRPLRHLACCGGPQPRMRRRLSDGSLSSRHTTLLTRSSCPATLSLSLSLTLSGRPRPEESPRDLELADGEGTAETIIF
Text: as §1

The target of assay [5] is T4, Alpha-1B adrenergic receptor (Homo sapiens, UniProt P35368).
T4 sequence (P35368 whole entry): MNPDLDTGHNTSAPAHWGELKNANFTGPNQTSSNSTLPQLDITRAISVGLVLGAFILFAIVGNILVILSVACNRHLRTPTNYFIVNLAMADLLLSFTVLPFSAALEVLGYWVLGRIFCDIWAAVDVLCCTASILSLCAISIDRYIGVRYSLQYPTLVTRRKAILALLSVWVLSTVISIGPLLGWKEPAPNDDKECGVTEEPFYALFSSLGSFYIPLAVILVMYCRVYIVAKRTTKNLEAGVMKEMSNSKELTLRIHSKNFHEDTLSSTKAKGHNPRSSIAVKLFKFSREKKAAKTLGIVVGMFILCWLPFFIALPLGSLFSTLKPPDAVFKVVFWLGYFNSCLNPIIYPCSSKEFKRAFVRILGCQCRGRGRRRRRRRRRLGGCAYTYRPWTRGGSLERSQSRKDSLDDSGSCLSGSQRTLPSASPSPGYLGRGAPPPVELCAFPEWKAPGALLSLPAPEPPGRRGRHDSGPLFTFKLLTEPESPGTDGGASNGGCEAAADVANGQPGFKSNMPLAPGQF
Text: as §1

Assay [6] deals with T5, Gamma-aminobutyric acid receptor subunit alpha-1/Adenosine receptor A1 (Homo sapiens, UniProt P14867+P30542).
T5 sequence (P30542 whole entry): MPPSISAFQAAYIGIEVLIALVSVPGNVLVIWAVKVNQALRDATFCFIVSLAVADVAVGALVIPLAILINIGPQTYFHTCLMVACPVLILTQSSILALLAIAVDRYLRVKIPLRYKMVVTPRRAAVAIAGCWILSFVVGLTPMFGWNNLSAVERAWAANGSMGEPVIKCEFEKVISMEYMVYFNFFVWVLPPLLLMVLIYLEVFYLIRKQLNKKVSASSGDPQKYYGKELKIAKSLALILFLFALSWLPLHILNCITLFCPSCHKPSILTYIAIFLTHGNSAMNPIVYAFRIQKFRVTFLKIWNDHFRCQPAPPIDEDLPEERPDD
T5 sequence (P14867 whole entry): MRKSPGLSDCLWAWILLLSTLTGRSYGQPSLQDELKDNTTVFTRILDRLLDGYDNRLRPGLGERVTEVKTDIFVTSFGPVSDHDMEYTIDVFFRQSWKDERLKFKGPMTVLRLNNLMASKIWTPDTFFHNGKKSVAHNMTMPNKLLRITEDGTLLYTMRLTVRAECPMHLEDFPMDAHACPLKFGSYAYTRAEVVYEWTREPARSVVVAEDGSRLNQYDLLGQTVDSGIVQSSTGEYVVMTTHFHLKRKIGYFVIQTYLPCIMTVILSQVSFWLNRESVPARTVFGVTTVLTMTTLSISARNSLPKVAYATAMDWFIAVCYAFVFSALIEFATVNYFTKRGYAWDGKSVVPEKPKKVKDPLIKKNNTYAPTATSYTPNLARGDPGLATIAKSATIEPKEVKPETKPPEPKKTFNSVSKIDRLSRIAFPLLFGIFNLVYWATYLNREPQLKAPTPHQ
Text: as §1

Sequence of Sigma non-opioid intracellular receptor 1 (Q99720 whole entry): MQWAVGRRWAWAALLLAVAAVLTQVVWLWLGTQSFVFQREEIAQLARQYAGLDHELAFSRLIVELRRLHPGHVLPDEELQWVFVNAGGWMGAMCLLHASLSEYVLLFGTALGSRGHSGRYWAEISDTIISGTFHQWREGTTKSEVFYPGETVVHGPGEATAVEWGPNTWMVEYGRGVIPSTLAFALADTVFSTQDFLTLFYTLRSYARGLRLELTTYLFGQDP

Broadly, the Ki is a measure of affinity in units of concentration, obtained from inhibition or displacement. A high value points to a looser hold on the target. `CN(C)CCc1c[nH]c2cc(F)ccc12` [6-f-dmt]: the Ki in assay [1] is 6.89 µM; in assay [2], 7.13 µM; on Nischarin it was 0.898 µM; in assay [3], over 10 µM; in assay [4], 0.149 µM; at Vasopressin V1b receptor, over 10 µM. Also, the inhibition constant (Ki) in assay [5] and in assay [6] was over 10 µM each time.
Consider `CCSc1cc(OC)c(CCN)cc1OC` [2C-T-2], for which the Ki in assay [1] is 3.87 µM; in assay [2] it was over 10 µM; on Nischarin it was 2.08 µM; in assay [3] it was over 10 µM; in assay [4] it was 0.166 µM; at Vasopressin V1b receptor, over 10 µM. For the same molecule, the Ki in assay [5] and in assay [6] was over 10 µM in each case.
In the case of `CCSc1cc(OC)c(CC(N)CC)cc1OC` (configuration not stated) [1-(4-Ethylsulfanyl-2,5-dimethoxy-benzyl)-propylamine], the inhibition constant Ki was 0.515 µM in assay [1]; over 10 µM in assay [2]; 0.947 µM at Nischarin; over 10 µM in assay [3]; over 10 µM in assay [4]; over 10 µM on Vasopressin V1b receptor. In addition, the inhibition constant (Ki) in assay [5] and in assay [6] was over 10 µM each time.
Regarding `CCOc1cc(OC)c(CC(C)N)cc1OC` (configuration not stated), the inhibitory constant (Ki) is 5.08 µM in assay [1]; over 10 µM in assay [2]; over 10 µM at Nischarin; over 10 µM in assay [3]; over 10 µM in assay [4]; over 10 µM on Vasopressin V1b receptor. The Ki in assay [5] and in assay [6] was over 10 µM in each case.
For the molecule `COc1ccc2[nH]cc(CCN(C(C)C)C(C)C)c2c1` [5-meo-dipt], the Ki was 9.44 µM in assay [1]; 3 µM in assay [2]; 0.76 µM on Nischarin; over 10 µM in assay [3]; 2.86 µM in assay [4]; over 10 µM at Vasopressin V1b receptor. The inhibition constant (Ki) in assay [5] and in assay [6] was over 10 µM throughout.
For `CCSc1cc(OC)c(CC(C)N)cc1OC` (configuration not stated) [2-(4-Ethylsulfanyl-2,5-dimethoxy-phenyl)-1-methyl-ethylamine], the Ki in assay [1] was 0.239 µM; in assay [2], over 10 µM; at Nischarin, 0.32 µM; in assay [3], over 10 µM; in assay [4], 1.39 µM; on Vasopressin V1b receptor, over 10 µM. Also, the inhibition constant (Ki) in assay [5] and in assay [6] was over 10 µM in each case.
For the molecule `COc1cc(CCN)c(OC)cc1Br`, the inhibition constant Ki in assay [1] is over 10 µM; in assay [2] it was over 10 µM; on Nischarin it was 2.16 µM; in assay [3] it was over 10 µM; in assay [4], 0.103 µM; at Vasopressin V1b receptor, over 10 µM. Also, the inhibition constant (Ki) in assay [5] and in assay [6] was over 10 µM in each case.
For `COc1ccc2[nH]cc(CCN(C)C(C)C)c2c1` [5-meo-mipt], the Ki in assay [1] was over 10 µM; in assay [2], 0.918 µM; at Nischarin, 0.879 µM; in assay [3] it was over 10 µM; in assay [4], 0.637 µM; on Vasopressin V1b receptor, over 10 µM. For the same molecule, the inhibition constant (Ki) in assay [5] and in assay [6] was over 10 µM throughout.
Take `CC(C)N(CCc1c[nH]c2ccccc12)C(C)C` [dipt]: the Ki in assay [1] is 1.8 µM; in assay [2], 2.7 µM; at Nischarin, 0.356 µM; in assay [3], over 10 µM; in assay [4], 2.52 µM; at Vasopressin V1b receptor, over 10 µM. For the same molecule, the inhibition constant (Ki) in assay [5] and in assay [6] was over 10 µM each time.
Turning to `COc1cc(CC(C)N)c(OC)cc1Br` (stereo not drawn) [2-(4-Bromo-2,5-dimethoxy-phenyl)-1-methyl-ethylamine((-)-DOB)], the inhibition constant (Ki) is 2.19 µM in assay [1]; over 10 µM in assay [2]; over 10 µM in assay [3]; 0.594 µM in assay [4]; over 10 µM on Vasopressin V1b receptor; over 10 µM in assay [5]. In assay [6], the inhibition constant (Ki) is over 10 µM.
With `COc1cc(CCN)cc(OC)c1OC` [3,4,5-trimethoxyphenylethylamine], the Ki in assay [1] was over 10 µM; in assay [2], over 10 µM; at Nischarin it was 2.68 µM; in assay [3] it was over 10 µM; in assay [4], 0.745 µM; on Vasopressin V1b receptor, over 10 µM. The Ki in assay [5] and in assay [6] was over 10 µM each time.
